This note sets out measurements from PubChem BioAssay AID504422 (Sanford-Burnham Center for Chemical Genomics, 2011).

In general, IC50 refers to the concentration that inhibits the measured activity by half.

SMILES strings stand for the structures. Calls of active or inactive are those of the source. The rule behind the calls is not given here.

In this experiment the test system is human hepatocytes, lipid droplet formation imaging. The experiment in a line: blockers of lipid droplet accumulation in hepatocytes – imaging, human hepatocytes, SAR follow-up (AID 504422).
For `O=C(NCCc1ccc2c(c1)OCO2)c1ccc(N2CCOCC2)s1`, the IC50 was > 10 µM (inactive).
For the molecule `CCOc1cc(CCNC(=O)c2cc(-c3ccccc3)c(N3CCOCC3)s2)ccc1OC`, the IC50 is > 10 µM (inactive).
`CCOc1ccc(CCNC(=O)CCC(=O)N2CCSc3ccccc32)cc1OCC`: the IC50 is > 10 µM (inactive).
Then `CCOc1ccc(CCNC(=O)CSc2cc(=O)n(C)c3cc(Cl)ccc23)cc1OCC`, with > 10 µM (inactive); and `CCn1c(C(=O)Nc2ccc(OC)c(OC)c2)cc2ccsc21`, with > 10 µM (inactive).
As for `CCn1c(C(=O)Nc2ccc3c(c2)OCO3)cc2ccsc21`, the IC50 was > 10 µM (inactive).
`CCOc1ccc(CCNC(=O)CCC(=O)N2CCOc3ccccc32)cc1OCC`: the IC50 was > 10 µM (inactive).
Next, `CCOc1ccc(CCNC(=O)COC(=O)c2cc(OC)cc(OC)c2)cc1OCC`: > 10 µM (inactive); `CCOc1ccc(CCNC(=O)CN2CCN(Cc3ccccc3C)C2=O)cc1OCC`: > 10 µM (inactive).
Then `CCOc1cc(CCNC(=O)c2cc3ccccc3n2C)ccc1OC`, with > 10 µM (inactive); and `CCOc1ccc(CCNC(=O)CSc2cc(=O)n(CC)c3ccccc23)cc1OCC`, with > 10 µM (inactive); and `CCOc1ccc(CCNC(=O)CSc2cc(=O)n(C)c3ccccc23)cc1OC`, with > 10 µM (inactive).
Next, `COc1ccc(CCNC(=O)c2cc(-c3ccccc3)c(N3CCOCC3)s2)cc1OC`: > 10 µM (inactive); `O=C(NCCc1ccc2c(c1)OCO2)c1cc(-c2ccccc2)c(N2CCOCC2)s1`: > 10 µM (inactive); `CCOc1cc(CCNC(=O)c2ccc(N3CCOCC3)s2)ccc1OC`: > 10 µM (inactive).
In the case of `COc1ccc(CCNC(=O)c2cc3ccccc3n2C)cc1OC`, the IC50 was > 10 µM (inactive).
For `CCOc1ccc(CCNC(=O)c2cc(-c3ccccc3)c(N3CCOCC3)s2)cc1OC`, the IC50 is > 10 µM (inactive).
Next, `CCOc1ccc(CCNC(=O)c2cc3ccsc3n2C)cc1OCC`: > 10 µM (inactive); `CCOc1ccc(CCNC(=O)COc2cc(=O)n(C)c3ccccc23)cc1OCC`: > 10 µM (inactive).
In the case of `CCOc1ccc(CCNC(=O)CN2C(=O)c3cccnc3Oc3ccc(C)cc32)cc1OCC`, the IC50 is > 10 µM (inactive).
Then `CCOc1cc(CCNC(=O)c2cc3ccsc3n2C)ccc1OC`, with > 10 µM (inactive); and `CCOc1ccc(CCNC(=O)c2cc3ccsc3n2CC)cc1OCC`, with > 10 µM (inactive).
With `O=C(NCCc1ccc2c(c1)OCO2)c1cc2sccc2[nH]1`, the IC50 was > 10 µM (inactive).
`Cn1c(C(=O)NCc2ccc3c(c2)OCO3)cc2ccsc21`: the IC50 was > 10 µM (inactive).
Turning to `CCOc1ccc(CCNC(=O)c2cc3ccsc3n2CC)cc1OC`, the IC50 was > 10 µM (inactive).
Next, `COc1ccc(NC(=O)c2cc3ccsc3n2C)cc1OC`: > 10 µM (inactive); `COc1cc(CNC(=O)c2cc3ccsc3n2C)cc(OC)c1OC`: > 10 µM (inactive); `CCOc1ccc(CCNC(=O)c2cc3ccccc3n2C)cc1OC`: > 10 µM (inactive).
Next, `Cn1c(C(=O)Nc2ccc3c(c2)OCO3)cc2ccsc21`: > 10 µM (inactive).
Turning to `COc1ccc(CCNC(=O)COC(=O)c2cc(OC)c(OC)cc2OC)cc1OC`, the IC50 was > 10 µM (inactive).
On to `CCOc1ccc(CCNC(=O)c2cc3sccc3n2CC)cc1OCC`, for which the IC50 is > 10 µM (inactive).
Consider `CCOc1ccc(CCNC(=O)Cn2ncn3nc(-c4ccc(OC)cc4)cc3c2=O)cc1OCC`, for which the IC50 is > 10 µM (inactive).
Then `Cn1c(=O)cc(SCC(=O)NCCc2ccc3c(c2)OCO3)c2ccccc21`, with > 10 µM (inactive); and `COc1cc(CNC(=O)CSc2cc(=O)n(C)c3ccccc23)cc(OC)c1OC`, with > 10 µM (inactive).
As for `Cn1c(C(=O)NCCc2ccc3c(c2)OCO3)cc2ccccc21`, the IC50 was > 10 µM (inactive).
With `Cn1c(=O)cc(SCC(=O)NCc2ccc3c(c2)OCO3)c2ccccc21`, the IC50 was > 10 µM (inactive).
For `CCOc1ccc(CCNC(=O)c2cc3ccsc3n2C)cc1OC`, the IC50 was > 10 µM (inactive).
Then `CCn1c(C(=O)NCCc2ccc(OC)c(OC)c2)cc2sc(Cl)cc21`, with > 10 µM (inactive); and `CCOc1ccc(CCNC(=O)Cn2nc(C)c3c(C)n(-c4ccccc4)nc3c2=O)cc1OCC`, with > 10 µM (inactive).
Then `CCOc1ccc(CCNC(=O)CSc2cc(=O)n(C)c3ccccc23)cc1OCC`, with > 10 µM (inactive).
Then `CCn1c(C(=O)NCCc2ccc(OC)c(OC)c2)cc2ccsc21`, with > 10 µM (inactive).
As to `CCOc1ccc(CCNC(=O)CCOc2cc(C)ccc2C)cc1OCC`, the IC50 is > 10 µM (inactive).
For `COc1ccc(CNC(=O)CSc2cc(=O)n(C)c3ccccc23)cc1OC`, the IC50 was > 10 µM (inactive).
Then `CCOc1ccc(CCNC(=O)c2cc3sccc3[nH]2)cc1OCC`, with > 10 µM (inactive); and `COc1ccc(CNC(=O)c2ccc(N3CCOCC3)s2)cc1OC`, with > 10 µM (inactive).
Then `CCOc1ccc(CCNC(=O)c2ccc(N3CCOCC3)s2)cc1OCC`, with > 10 µM (inactive); and `CCOc1cc(CCNC(=O)CSc2cc(=O)n(C)c3ccccc23)ccc1OC`, with > 10 µM (inactive).
On to `COc1ccc(CCNC(=O)Cn2cccc2C(=O)c2ccccc2C)cc1OC`, for which the IC50 was > 10 µM (inactive).
Then `CCOc1ccc(CCNC(=O)C2CC=CCC2C(=O)OC(C)C)cc1OCC` (stereo not drawn), with > 10 µM (inactive).
Regarding `CCOc1ccc(CCNC(=O)c2cc3sc(Cl)cc3n2C)cc1OCC`, the IC50 was > 10 µM (inactive).
Then `CCn1c(C(=O)NCc2ccc(OC)c(OC)c2)cc2ccsc21`, with > 10 µM (inactive); and `CCOc1ccc(CCNC(=O)Cn2cccc2C(=O)c2ccccc2)cc1OCC`, with > 10 µM (inactive); and `COc1ccc(CNC(=O)c2cc3ccsc3n2C)cc1OC`, with > 10 µM (inactive).
Next, `CCOc1ccc(CCNC(=O)CCc2nnc3ccc(N4CCCCC4)nn23)cc1OCC`: > 10 µM (inactive); `CCOc1ccc(CCNC(=O)c2cc3sccc3n2CC)cc1OC`: > 10 µM (inactive).
Turning to `CCOc1cc(CCNC(=O)c2cc3sccc3n2CC)ccc1OC`, the IC50 is > 10 µM (inactive).
Then `CCOc1ccc(CCNC(=O)CCc2nnc3ccc(N4CCCC4)nn23)cc1OCC`, with > 10 µM (inactive).
Turning to `COc1ccc(CCNC(=O)c2cc(-c3ccccc3)c(N3CCOCC3)s2)c(OC)c1OC`, the IC50 is > 10 µM (inactive).
Consider `COc1ccc(CNC(=O)c2cc(-c3ccccc3)c(N3CCOCC3)s2)cc1OC`, for which the IC50 is > 10 µM (inactive).
For `CCn1c(C(=O)NCc2cc(OC)c(OC)c(OC)c2)cc2ccsc21`, the IC50 is > 10 µM (inactive).
Then `CCOc1cc(CCNC(=O)c2cc3sccc3[nH]2)ccc1OC`, with > 10 µM (inactive); and `CCOc1ccc(CCNC(=O)c2cc(-c3ccccc3)c(N3CCOCC3)s2)cc1OCC`, with > 10 µM (inactive).
Next, `CCOc1ccc(CCNC(=O)COC(=O)c2ccc(OC)c(OC)c2OC)cc1OCC`: > 10 µM (inactive); `COc1ccc(CCNC(=O)c2cc3sccc3n2C)cc1OC`: > 10 µM (inactive).
Then `COc1ccc(CCNC(=O)CSc2cc(=O)n(C)c3ccccc23)cc1OC`, with > 10 µM (inactive).
In the case of `CCOc1ccc(CCNC(=O)COC(=O)c2cc(OC)c(OC)c(OC)c2)cc1OCC`, the IC50 was > 10 µM (inactive).
Then `CCn1c(C(=O)Nc2ccc3c(c2)OCO3)cc2sccc21`, with > 10 µM (inactive).
For the molecule `CCOc1cc(CCNC(=O)COc2cc(=O)n(C)c3ccccc23)ccc1OC`, the IC50 was > 10 µM (inactive).
Regarding `CCOc1ccc(CCNC(=O)c2nnc(Cc3ccc(F)cc3)o2)cc1OCC`, the IC50 was > 10 µM (inactive).
Next, `CCn1c(C(=O)NCc2ccc3c(c2)OCO3)cc2sccc21`: > 10 µM (inactive).
Then `CCOc1ccc(CCNC(=O)CCc2nc(-c3ccc(OC)cc3)no2)cc1OCC`, with > 10 µM (inactive).
For `COc1ccc(CCNC(=O)c2cc3sc(Cl)cc3n2C)cc1OC`, the IC50 is > 10 µM (inactive).
Then `CCOc1ccc(CCNC(=O)c2cc3sccc3n2C)cc1OCC`, with > 10 µM (inactive); and `Cn1c(=O)cc(SCC(=O)Nc2ccc3c(c2)OCO3)c2ccccc21`, with > 10 µM (inactive); and `CCn1c(C(=O)Nc2ccc(OC)c(OC)c2)cc2sccc21`, with > 10 µM (inactive).
Next, `CCn1c(C(=O)NCc2cc(OC)c(OC)c(OC)c2)cc2sccc21`: > 10 µM (inactive); `CCOc1ccc(CCNC(=O)CCC(=O)N2CCOc3ccc(C)cc32)cc1OCC`: > 10 µM (inactive); `CCOc1ccc(CCNC(=O)Cn2cccc2C(=O)c2ccccc2C)cc1OCC`: > 10 µM (inactive).
